Experiment: physchem
Conditions: human

Row | SMILES | pKa
1 | COc1ccc([C@H](N[C@@H]2CC[C@@H](C(=O)N3CCC(C(=O)N4CCCC4)(c4ccccc4)CC3)C(C)(C)C2)C(F)(F)F)cc1 | 4.24
2 | COc1ccc([C@@H](C)N[C@@H]2CC[C@@H](C(=O)N3CCC(C(=O)N4CCCC4)(c4ccccc4)CC3)C(C)(C)C2)cc1 | 10.2
